Laboratory results reported in US11116735B2, “Use of substituted benzylideneguanidine derivatives as synergists for polymyxin antibiotics” (GUANGZHOU INSIGHTER BIOTECHNOLOGY CO., LTD., priority 2015, dated 2021).

How the values were obtained:
[1] = test system: E. coli 3Y-9; assay: MIC by doubling dilution, colistin sulfate-susceptible E. coli 3Y-9; type: cell-based, Escherichia coli; conditions: for In vitro minimum inhibitory concentration (MIC) of the substance alone: E. coli 3Y-9, colistin sulfate-susceptible, derivatives as hydrochlorides; for In vitro MIC of colistin sulfate in the presence of the substituted benzylideneguanidine derivative: E. coli 3Y-9, culture comprised 20.0 ppm of the derivative (hydrochloride), colistin sulfate serially diluted
[2] = test system: E. coli 3B-24; assay: MIC by doubling dilution, colistin sulfate-susceptible E. coli 3B-24; type: cell-based, Escherichia coli; conditions: for In vitro minimum inhibitory concentration (MIC) of the substance alone: E. coli 3B-24, colistin sulfate-susceptible, derivatives as hydrochlorides; for In vitro MIC of colistin sulfate in the presence of the substituted benzylideneguanidine derivative: E. coli 3B-24, culture comprised 20.0 ppm of the derivative (hydrochloride), colistin sulfate serially diluted
[3] = test system: E. coli 4D-6; assay: MIC by doubling dilution, colistin sulfate-resistant E. coli 4D-6; conditions: for In vitro minimum inhibitory concentration (MIC) of the substance alone: E. coli 4D-6, colistin sulfate-resistant, derivatives as hydrochlorides; for In vitro MIC of colistin sulfate in the presence of the substituted benzylideneguanidine derivative: E. coli 4D-6, resistant, culture comprised 20.0 ppm of the derivative (hydrochloride)
Procedure: (§1) In vitro minimum inhibitory concentrations of colistin sulfate against the strains where the cultures respectively comprised 20.0 ppm of the substituted benzylideneguanidine derivatives were also measured.

[4] = test system: E. coli 2G-7; assay: MIC by doubling dilution, colistin sulfate-resistant E. coli 2G-7; conditions: for In vitro minimum inhibitory concentration (MIC) of the substance alone: E. coli 2G-7, colistin sulfate-resistant, derivatives as hydrochlorides; for In vitro MIC of colistin sulfate in the presence of the substituted benzylideneguanidine derivative: E. coli 2G-7, resistant, culture comprised 20.0 ppm of the derivative (hydrochloride)
Procedure: as §1

[5] = test system: E. coli 2S-19; assay: MIC by doubling dilution, colistin sulfate-susceptible E. coli 2S-19; type: cell-based, Escherichia coli; conditions: for In vitro minimum inhibitory concentration (MIC) of the substance alone: E. coli 2S-19, colistin sulfate-susceptible, derivatives as hydrochlorides; for In vitro MIC of colistin sulfate in the presence of the substituted benzylideneguanidine derivative: E. coli 2S-19, culture comprised 20.0 ppm of the derivative (hydrochloride), colistin sulfate serially diluted
[6] = test system: E. coli 5W-7; assay: MIC by doubling dilution, colistin sulfate-susceptible E. coli 5W-7; type: cell-based, Escherichia coli; conditions: for In vitro minimum inhibitory concentration (MIC) of the substance alone: E. coli 5W-7, colistin sulfate-susceptible, derivatives as hydrochlorides; for In vitro MIC of colistin sulfate in the presence of the substituted benzylideneguanidine derivative: E. coli 5W-7, culture comprised 20.0 ppm of the derivative (hydrochloride), colistin sulfate serially diluted
[7] = test system: weanling piglets; assay: Synergy of derivatives and colistin sulfate in the feed for weanling piglets; type: in vivo, Duroc×Landrace×Large crossbred lean weanling piglets; conditions: creep feed with 20 ppm colistin sulfate and 150 ppm derivative (hydrochloride), ten days
Procedure: 90 28-day-aged Duroc×Landrace×Large crossbred lean weanling piglets similar in weight were divided into 9 groups, 10 piglets in each group. For each group, colistin sulfate and/or various substituted benzylideneguanidine derivatives were added into the antibiotic-free creep feed. The piglets were given ad libitum access to feed and water during the experiment. Weight gain, feed efficiency and diarrhea rate of each group within ten days were recorded.

[8] = test system: E. coli 3H-4; assay: MIC by doubling dilution, colistin sulfate-resistant E. coli 3H-4; conditions: for In vitro minimum inhibitory concentration (MIC) of the substance alone: E. coli 3H-4, colistin sulfate-resistant, derivatives as hydrochlorides; for In vitro MIC of colistin sulfate in the presence of the substituted benzylideneguanidine derivative: E. coli 3H-4, resistant, culture comprised 20.0 ppm of the derivative (hydrochloride)
Procedure: as §1

[9] = test system: E. coli 5F-1; assay: MIC by doubling dilution, colistin sulfate-resistant E. coli 5F-1; conditions: for In vitro minimum inhibitory concentration (MIC) of the substance alone: E. coli 5F-1, colistin sulfate-resistant, derivatives as hydrochlorides; for In vitro MIC of colistin sulfate in the presence of the substituted benzylideneguanidine derivative: E. coli 5F-1, resistant, culture comprised 20.0 ppm of the derivative (hydrochloride)
Procedure: as §1

SMILES | In vitro minimum inhibitory concentration (MIC) of the substance alone [1] [ppm] | In vitro MIC of colistin sulfate in the presence of the substituted benzylideneguanidine derivative [1] [ppm] | In vitro minimum inhibitory concentration (MIC) of the substance alone [2] [ppm] | In vitro MIC of colistin sulfate in the presence of the substituted benzylideneguanidine derivative [2] [ppm] | In vitro minimum inhibitory concentration (MIC) of the substance alone [3] [ppm] | In vitro MIC of colistin sulfate in the presence of the substituted benzylideneguanidine derivative [3] [ppm] | In vitro minimum inhibitory concentration (MIC) of the substance alone [4] [ppm] | In vitro MIC of colistin sulfate in the presence of the substituted benzylideneguanidine derivative [4] [ppm] | In vitro minimum inhibitory concentration (MIC) of the substance alone [5] [ppm] | In vitro MIC of colistin sulfate in the presence of the substituted benzylideneguanidine derivative [5] [ppm] | In vitro minimum inhibitory concentration (MIC) of the substance alone [6] [ppm] | In vitro MIC of colistin sulfate in the presence of the substituted benzylideneguanidine derivative [6] [ppm] | Average daily weight gain [7] [g] | Diarrhea rate [7] [%] | Feed conversion ratio [7] | In vitro minimum inhibitory concentration (MIC) of the substance alone [8] [ppm] | In vitro MIC of colistin sulfate in the presence of the substituted benzylideneguanidine derivative [8] [ppm] | In vitro minimum inhibitory concentration (MIC) of the substance alone [9] [ppm] | In vitro MIC of colistin sulfate in the presence of the substituted benzylideneguanidine derivative [9] [ppm]
COc1ccc(C=NN=C(N)NN=Cc2ccc(OC)cc2)cc1 [Compound 1] | >800 | 1.00 | >800 | 1.00 | >800 | 4.0 | >800 | 1.0 | >800 | 1.00 | >800 | 0.50 | 243 | 18 | 1.529 | >800 | 2.0 | >800 | 2.0
CCCCCCCCOc1ccc(C=NNC(=N)NN=Cc2ccc(OCCCCCCCC)cc2)cc1 [Compound 4] | >800 | 1.00 | >800 | 1.00 | >800 | 16 | >800 | 4.0 | >800 | 1.00 | >800 | 0.50 | 239 | 19 | 1.532 | >800 | 4 | >800 | 8.0
CCC(CC)Oc1ccc(C=NN=C(N)NN=Cc2ccc(OC(CC)CC)cc2)cc1 [Compound 5] | >800 | 2.00 | >800 | 2.00 | >800 | 32 | >800 | 8 | >800 | 1.00 | >800 | 1.00 | 231 | 25 | 1.565 | >800 | 8 | >800 | 16
N=C(NN=Cc1ccc(OCc2ccccc2)cc1)NN=Cc1ccc(OCc2ccccc2)cc1 [Compound 7] | >800 | 2.00 | >800 | 2.00 | >800 | 32 | >800 | 8 | >800 | 2.00 | >800 | 1.00 | 240 | 16 | 1.576 | >800 | 8 | >800 | 8
N=C(N/N=C/c1ccc(Cl)cc1)N/N=C/c1ccc(Cl)cc1 [Compound 8] | >800 | 1.00 | >800 | 1.00 | >800 | 16 | >800 | 4 | >800 | 1.00 | >800 | 0.50 | 220 | 33 | 1.608 | >800 | 4 | >800 | 8
N=C(NN=Cc1ccc([N+](=O)[O-])cc1)NN=Cc1ccc([N+](=O)[O-])cc1 [Compound 15] | >800 | 1.00 | >800 | 1.00 | >800 | 16 | >800 | 4 | >800 | 1.00 | >800 | 0.50 | – | – | – | >800 | 4 | >800 | 8
N=C(NN=Cc1ccc(OC(F)(F)F)cc1)NN=Cc1ccc(OC(F)(F)F)cc1 [Compound 16] | >800 | 2.00 | >800 | 1.00 | >800 | 32 | >800 | 8 | >800 | 1.00 | >800 | 0.50 | – | – | – | >800 | 8 | >800 | 16
